Measured values: patent US20230159453A1 (COCRYSTAL PHARMA, INC., priority 2020, published 2023)

Target: SARS2 protease (Severe acute respiratory syndrome coronavirus 2, UniProt P0DTD1)
Experiment: SARS-CoV-2 protease inhibition assay (SARS2 FRET protease assay)
Format: biochemical
Settings: SARS-CoV-2 protease 25 nM, FRET, peptide substrate 1.3 μM, 30 minutes at 30° C., compounds 20 μM to 1.0 nM; read-out: IC50

CC(C)C[C@H](NC(=O)OC(C)(C)Cc1ccccc1)C(=O)N[C@@H](C[C@@H]1CCNC1=O)C(O)S(=O)(=O)O (stereo partly drawn) [Compound C57, (2S)-1-hydroxy-2-((S)-4-methyl-2-((((2-methyl-1-phenylpropan-2-yl)oxy)carbonyl)amino)pentanamido)-3-((S)-2-oxopyrrolidin-3-yl)propane-1-sulfonate]
IC50: 800 nM

CC(C)C[C@H](NC(=O)OC1(Cc2ccccc2)CCC1)C(=O)N[C@@H](C[C@@H]1CCNC1=O)C(O)S(=O)(=O)O (stereo partly drawn) [Compound C63, (2S)-2-((S)-2-(((1-Benzylcyclobutoxy)carbonyl)amino)-4-methylpentanamido)-1-hydroxy-3-((S)-2-oxopyrrolidin-3-yl)propane-1-sulfonate]
IC50: 1600 nM

CCCCCOC(=O)N[C@@H](CC1CCCCC1)C(=O)N[C@H](C=O)CCC(=O)N1CCOc2ccccc2C1 [Compound C16, Pentyl ((S)-3-cyclohexyl-1-(((S)-5-(2,3-dihydrobenzo[f][1,4]oxazepin-4(5H)-yl)-1,5-dioxopentan-2-yl)amino)-1-oxopropan-2-yl)carbamate]
IC50: 37800 nM

O=C[C@H](CC1CC2(CCOCC2)NC1=O)NC(=O)[C@H](CC1CCCCC1)NC(=O)OCc1cccc(Cl)c1 (stereo partly drawn) [Compound C200, 3-Chlorobenzyl ((2S)-3-cyclohexyl-1-oxo-1-(((2S)-1-oxo-3-(2-oxo-8-oxa-1-azaspiro[4.5]decan-3-yl)propan-2-yl)amino)propan-2-yl)carbamate]
IC50: 0.65 nM

CC(=O)N1CCC2(CC1)CC(CC(C=O)NC(=O)[C@H](CC1CCCCC1)NC(=O)c1cc3cc(Cl)ccc3[nH]1)C(=O)N2 (stereo partly drawn) [Compound C141, N-((2S)-1-((1-(8-acetyl-2-oxo-1,8-diazaspiro[4.5]decan-3-yl)-3-oxopropan-2-yl)amino)-3-cyclohexyl-1-oxopropan-2-yl)-5-chloro-1H-indole-2-carboxamide]
IC50: 30.8 nM

COc1cccc2[nH]c(C(=O)N[C@@H](CC3CCCCC3)C(=O)NC(CC3CC4(CCOCC4)NC3=O)C(=O)C(=O)NC3CC3)cc12 (stereo partly drawn) [Compound C191, N-((2S)-3-Cyclohexyl-1-((4-(cyclopropylamino)-3,4-dioxo-1-(2-oxo-8-oxa-1-azaspiro[4.5]decan-3-yl)butan-2-yl)amino)-1-oxopropan-2-yl)-4-methoxy-1H-indole-2-carboxamide]
IC50: 305 nM

CCOP(=O)(OCC)C(O)[C@H](CCC(=O)N1CCNC(c2ccccc2)C1)NC(=O)[C@H](CC1CCCCC1)NC(=O)OCc1cccc(Cl)c1 (stereo partly drawn) [Compound C12, 3-Chlorobenzyl ((2S)-3-cyclohexyl-1-(((2S)-1-(diethoxyphosphoryl)-1-hydroxy-5-oxo-5-(3-phenylpiperazin-1-yl)pentan-2-yl)amino)-1-oxopropan-2-yl)carbamate]
IC50: > 200000 nM

CS(=O)(=O)N1CCC2(CC1)CC(CC(NC(=O)[C@H](CC1CCCCC1)NC(=O)OC1CCCC1Cc1cccc(Cl)c1)C(=O)C(=O)NC1CC1)C(=O)N2 (stereo partly drawn) [Compound C177, 2-(3-chlorobenzyl)cyclopentyl ((2S)-3-cyclohexyl-1-((4-(cyclopropylamino)-1-(8-(methylsulfonyl)-2-oxo-1,8-diazaspiro[4.5]decan-3-yl)-3,4-dioxobutan-2-yl)amino)-1-oxopropan-2-yl)carbamate]
IC50: 4390 nM

CCCC1CCC(OC(=O)N[C@@H](CC(C)C)C(=O)NC(C=O)CC2CC3(CCN(C(C)=O)CC3)NC2=O)CC1 (stereo partly drawn) [Compound C77, 4-Propylcyclohexyl ((2S)-1-((1-(8-acetyl-2-oxo-1,8-diazaspiro[4.5]decan-3-yl)-3-oxopropan-2-yl)amino)-4-methyl-1-oxopentan-2-yl)carbamate]
IC50: 600 nM

O=C[C@H](C[C@@H]1CCNC1=O)NC(=O)[C@H](CC1CCCCC1)NC(=O)O[C@H]1CCC[C@H]1Cc1cccc(Cl)c1 [Compound C224, (1S,2S)-2-(3-Chlorobenzyl) cyclopentyl ((S)-3-cyclohexyl-1-oxo-1-(((S)-1-oxo-3-((S)-2-oxopyrrolidin-3-yl)propan-2-yl)amino)propan-2-yl) carbamate]
IC50: 183 nM

CC(C)C[C@H](NC(=O)OC(C)(C)Cc1ccccc1)C(=O)N[C@@H](C[C@@H]1CCNC1=O)C(=O)C(N)=O [Compound C79]
IC50: 3800 nM

CC(C)C[C@H](NC(=O)OC(c1ccccc1)C1(c2cccc(Cl)c2)CCC1)C(=O)N[C@H](C=O)C[C@@H]1CCNC1=O (some centres unmarked) [Compound C277]
IC50: 710 nM

CCCCCCOC(=O)N[C@@H](CC1CCCCC1)C(=O)N[C@H](C=O)CCC(=O)N1CCOc2ccccc2C1 [Compound C26, Hexyl ((S)-3-cyclohexyl-1-(((S)-5-(2,3-dihydrobenzo[f][1,4]oxazepin-4(5H)-yl)-1,5-dioxopentan-2-yl)amino)-1-oxopropan-2-yl)carbamate]
IC50: > 200000 nM

CC1(C)CC(CC(NC(=O)[C@H](CC2CCCCC2)NC(=O)OCc2cccc(Cl)c2)C(=O)C(=O)NC2CC2)C(=O)N1 (stereo partly drawn) [Compound C244, 3-Chlorobenzyl ((2S)-3-cyclohexyl-1-((4-(cyclopropylamino)-1-(5,5-dimethyl-2-oxopyrrolidin-3-yl)-3,4-dioxobutan-2-yl)amino)-1-oxopropan-2-yl) carbamate]
IC50: 1730 nM

O=C(N[C@@H](CC1CCCCC1)C(=O)NC(CC1CC2(CCCCC2)NC1=O)C(=O)C(=O)NC1CC1)OC(Cc1cccc(Cl)c1)c1cccc(Cl)c1 (stereo partly drawn) [Compound C195, 1,2-Bis(3-chlorophenyl)ethyl ((2S)-3-cyclohexyl-1-((4-(cyclopropylamino)-3,4-dioxo-1-(2-oxo-1-azaspiro[4.5]decan-3-yl)butan-2-yl)amino)-1-oxopropan-2-yl)carbamate]
IC50: 2010 nM

O=C(N[C@@H](CC1CCCCC1)C(=O)NC(CC1CC2(CCCCC2)NC1=O)C(=O)C(=O)NC1CC1)OC(Cc1cccc(Cl)c1)c1ccccc1 (stereo partly drawn) [Compound C153, 2-(3-Chlorophenyl)-1-phenylethyl ((2S)-3-cyclohexyl-1-((4-(cyclopropylamino)-3,4-dioxo-1-(2-oxo-1-azaspiro[4.5]decan-3-yl)butan-2-yl)amino)-1-oxopropan-2-yl)carbamate]
IC50: > 20000 nM

O=C(N[C@@H](CC1CCCCC1)C(=O)N[C@@H](CC1CC2(CCCCC2)NC1=O)C(=O)CO)OCc1cccc(Cl)c1 (stereo partly drawn) [Compound C168, 3-Chlorobenzyl ((2S)-3-cyclohexyl-1-(((2S)-4-hydroxy-3-oxo-1-(2-oxo-1-azaspiro[4.5]decan-3-yl)butan-2-yl)amino)-1-oxopropan-2-yl)carbamate]
IC50: 5440 nM

CC(C)(C1CCCCC1)C(NC(=O)OCc1ccccc1)C(=O)N[C@H](C=O)C[C@@H]1CCNC1=O (stereo partly drawn) [Compound C140, Benzyl (3-cyclohexyl-3-methyl-1-oxo-1-(((S)-1-oxo-3-((S)-2-oxopyrrolidin-3-yl)propan-2-yl)amino)butan-2-yl)carbamate]
IC50: 405 nM

CC(C)C[C@H](NC(=O)OC1(Cc2cccc(OCc3ccccc3)c2)CC1)C(=O)N[C@@H](CC1CCNC1=O)C(O)S(=O)(=O)O (stereo partly drawn) [Compound C76, Sodium (2S)-2-((S)-2-(((1-(3-(benzyloxy)benzyl)cyclopropoxy)carbonyl)amino)-4-methylpentanamido)-1-hydroxy-3-((S)-2-oxopyrrolidin-3-yl)propane-1-sulfonate]
IC50: 380 nM

CC(C)C[C@H](NC(=O)OCc1cccc(Cl)c1)C(=O)NC(C=O)CC1CC2(CCCCC2)NC1=O (stereo partly drawn) [Compound C66, 3-Chlorobenzyl ((2S)-4-methyl-1-oxo-1-((1-oxo-3-(2-oxo-1-azaspiro[4.5]decan-3-yl)propan-2-yl)amino)pentan-2-yl)carbamate]
IC50: 100 nM
